Experimental data as given in the supplement of paper PMC12076712.

Key:
Experiment in all cases: pIC50, kinobeads binding competition
HIPK1 = HIPK1 (UniProt Q86Z02)
Procedure, shortened: (§1)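 Nine compound concentrations were tested, starting at 30 μM in 1:4 steps on live Jurkat cells (60 min, 37 °C, then lysis) or in 1:5 steps on Jurkat lysate or a 1:1:1:1 HEK293/K-562/HepG2/placenta lysate mix (60 min, 4 °C). Kinobeads-bound proteins were digested and quantified with TMT10 LC-MS/MS. pIC50 values are from logistic dose-response fits in the R drc package of fold changes relative to vehicle, from biological duplicates.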

MAP3K15 = target: T1, MAP3K15 (UniProt Q6ZN16); conditions: cell material: Lysate mix
T1 sequence (whole entry): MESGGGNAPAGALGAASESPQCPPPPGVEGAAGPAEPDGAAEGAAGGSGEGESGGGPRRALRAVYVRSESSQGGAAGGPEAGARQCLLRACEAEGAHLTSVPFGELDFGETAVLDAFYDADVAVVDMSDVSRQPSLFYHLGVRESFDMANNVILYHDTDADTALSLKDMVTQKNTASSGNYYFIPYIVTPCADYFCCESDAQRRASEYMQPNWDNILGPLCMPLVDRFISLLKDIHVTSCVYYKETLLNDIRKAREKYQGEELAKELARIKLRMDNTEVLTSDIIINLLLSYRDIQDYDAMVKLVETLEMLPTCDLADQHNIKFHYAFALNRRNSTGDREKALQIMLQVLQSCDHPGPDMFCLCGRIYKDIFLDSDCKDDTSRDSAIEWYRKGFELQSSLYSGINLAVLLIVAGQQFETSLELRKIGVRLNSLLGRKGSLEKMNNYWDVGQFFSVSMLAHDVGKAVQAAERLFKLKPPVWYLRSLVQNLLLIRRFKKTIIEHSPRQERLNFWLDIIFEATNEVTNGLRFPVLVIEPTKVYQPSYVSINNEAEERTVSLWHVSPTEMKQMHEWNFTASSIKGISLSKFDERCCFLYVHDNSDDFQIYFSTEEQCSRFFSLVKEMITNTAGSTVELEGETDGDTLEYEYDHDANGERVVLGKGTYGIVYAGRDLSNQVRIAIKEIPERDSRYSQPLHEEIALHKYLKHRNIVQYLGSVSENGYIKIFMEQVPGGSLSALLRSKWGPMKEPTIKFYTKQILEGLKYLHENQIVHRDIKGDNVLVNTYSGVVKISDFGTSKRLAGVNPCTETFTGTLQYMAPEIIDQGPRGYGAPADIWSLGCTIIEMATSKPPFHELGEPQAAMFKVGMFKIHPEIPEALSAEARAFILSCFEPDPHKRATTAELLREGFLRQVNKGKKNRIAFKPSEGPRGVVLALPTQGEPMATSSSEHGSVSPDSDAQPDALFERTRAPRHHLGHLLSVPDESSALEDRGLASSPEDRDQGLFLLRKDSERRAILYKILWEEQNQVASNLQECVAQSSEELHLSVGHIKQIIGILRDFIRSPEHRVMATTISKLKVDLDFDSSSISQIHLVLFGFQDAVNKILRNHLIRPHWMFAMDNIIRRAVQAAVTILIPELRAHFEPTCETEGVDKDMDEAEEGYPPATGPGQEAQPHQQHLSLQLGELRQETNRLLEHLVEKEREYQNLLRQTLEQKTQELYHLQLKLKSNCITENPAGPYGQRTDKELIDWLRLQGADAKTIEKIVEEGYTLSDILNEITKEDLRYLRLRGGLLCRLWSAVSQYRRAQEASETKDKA
Procedure, shortened: as §1

MAPK11 = MAPK11 (UniProt Q15759)
Procedure, shortened: as §1

ULK3 = target: T2, ULK3 (UniProt Q6PHR2)
T2 sequence (whole entry): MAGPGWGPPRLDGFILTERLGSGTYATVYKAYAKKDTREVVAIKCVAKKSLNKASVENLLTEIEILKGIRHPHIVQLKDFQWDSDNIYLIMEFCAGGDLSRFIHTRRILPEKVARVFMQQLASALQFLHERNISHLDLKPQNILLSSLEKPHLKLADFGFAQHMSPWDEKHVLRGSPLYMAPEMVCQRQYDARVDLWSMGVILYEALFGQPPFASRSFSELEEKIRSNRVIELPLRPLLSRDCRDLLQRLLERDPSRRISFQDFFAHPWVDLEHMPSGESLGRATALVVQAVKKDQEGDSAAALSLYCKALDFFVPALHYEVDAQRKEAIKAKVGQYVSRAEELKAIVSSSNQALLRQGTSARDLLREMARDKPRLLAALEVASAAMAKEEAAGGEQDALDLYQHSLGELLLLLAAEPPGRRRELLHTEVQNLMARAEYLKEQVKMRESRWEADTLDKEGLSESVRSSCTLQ
Procedure, shortened: as §1

UniProt Q13163 = target: T3, UniProt Q13163
T3 sequence (whole entry): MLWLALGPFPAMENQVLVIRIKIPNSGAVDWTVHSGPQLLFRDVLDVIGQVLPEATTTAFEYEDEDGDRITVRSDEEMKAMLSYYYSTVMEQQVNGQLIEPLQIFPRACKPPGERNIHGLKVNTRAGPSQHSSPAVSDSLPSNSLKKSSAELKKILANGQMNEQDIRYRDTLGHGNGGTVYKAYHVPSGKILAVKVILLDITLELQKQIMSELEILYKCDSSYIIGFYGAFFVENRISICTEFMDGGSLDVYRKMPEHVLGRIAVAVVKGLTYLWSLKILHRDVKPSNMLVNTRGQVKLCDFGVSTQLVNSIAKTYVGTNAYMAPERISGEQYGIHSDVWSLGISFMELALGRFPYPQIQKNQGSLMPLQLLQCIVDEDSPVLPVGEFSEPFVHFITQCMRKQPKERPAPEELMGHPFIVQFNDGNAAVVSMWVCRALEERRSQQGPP
Procedure, shortened: as §1

MAPK11, sequence (Q15759 whole entry): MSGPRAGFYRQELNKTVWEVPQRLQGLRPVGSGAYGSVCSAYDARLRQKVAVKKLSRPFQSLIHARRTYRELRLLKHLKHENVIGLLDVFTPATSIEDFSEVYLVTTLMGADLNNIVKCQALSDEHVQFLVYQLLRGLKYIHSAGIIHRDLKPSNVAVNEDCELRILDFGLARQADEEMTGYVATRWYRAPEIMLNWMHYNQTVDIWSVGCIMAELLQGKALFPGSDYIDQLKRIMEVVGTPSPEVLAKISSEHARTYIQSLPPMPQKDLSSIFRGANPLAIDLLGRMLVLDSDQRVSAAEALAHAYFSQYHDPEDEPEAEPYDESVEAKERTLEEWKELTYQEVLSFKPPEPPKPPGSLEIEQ
HIPK1, sequence (Q86Z02 whole entry, looked up): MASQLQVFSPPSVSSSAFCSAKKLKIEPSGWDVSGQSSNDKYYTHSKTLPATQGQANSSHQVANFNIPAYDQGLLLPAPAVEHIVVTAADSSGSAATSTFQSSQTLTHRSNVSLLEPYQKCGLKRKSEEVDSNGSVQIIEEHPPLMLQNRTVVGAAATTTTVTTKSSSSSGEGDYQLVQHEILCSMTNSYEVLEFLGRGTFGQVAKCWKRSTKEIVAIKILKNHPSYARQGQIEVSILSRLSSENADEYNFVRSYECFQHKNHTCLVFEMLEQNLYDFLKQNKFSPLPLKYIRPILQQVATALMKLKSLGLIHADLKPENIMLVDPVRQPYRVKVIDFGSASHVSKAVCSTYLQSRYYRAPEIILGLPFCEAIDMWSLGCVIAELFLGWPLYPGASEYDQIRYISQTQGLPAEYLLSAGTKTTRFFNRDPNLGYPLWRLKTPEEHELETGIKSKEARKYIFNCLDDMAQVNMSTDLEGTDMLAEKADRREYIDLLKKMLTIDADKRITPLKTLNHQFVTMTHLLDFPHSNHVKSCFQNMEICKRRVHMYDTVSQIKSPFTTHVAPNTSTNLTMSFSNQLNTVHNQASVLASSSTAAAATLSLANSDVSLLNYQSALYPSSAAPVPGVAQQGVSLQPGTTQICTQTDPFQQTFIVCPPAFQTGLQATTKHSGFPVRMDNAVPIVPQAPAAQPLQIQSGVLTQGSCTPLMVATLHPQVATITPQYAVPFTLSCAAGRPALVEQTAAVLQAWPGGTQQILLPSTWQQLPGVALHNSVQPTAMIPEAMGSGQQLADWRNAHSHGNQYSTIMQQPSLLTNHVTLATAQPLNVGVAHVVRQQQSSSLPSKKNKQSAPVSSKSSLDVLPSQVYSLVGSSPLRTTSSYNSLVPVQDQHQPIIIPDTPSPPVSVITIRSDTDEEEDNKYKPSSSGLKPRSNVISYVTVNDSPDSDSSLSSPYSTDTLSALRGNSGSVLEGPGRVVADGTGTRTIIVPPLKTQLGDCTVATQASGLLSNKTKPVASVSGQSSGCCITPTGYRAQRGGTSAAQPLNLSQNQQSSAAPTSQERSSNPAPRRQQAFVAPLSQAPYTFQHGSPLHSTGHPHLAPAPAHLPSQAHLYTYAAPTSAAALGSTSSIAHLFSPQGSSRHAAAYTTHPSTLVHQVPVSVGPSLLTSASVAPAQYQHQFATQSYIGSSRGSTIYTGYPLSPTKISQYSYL

SMILES: C#CCNC(=O)c1cc(Nc2cc(C3CC3)[nH]n2)nc(N2CCN(Cc3ccc(S(=O)(=O)F)cc3)CC2)n1
- pIC50 (HIPK1; cell material: Jurkat cells): 6.08
- pIC50 (HIPK1; cell material: Jurkat lysate): 5.37
- pIC50 (HIPK1; cell material: Lysate mix): 6
- pIC50 (MAP3K15): < 4.52
- pIC50 (MAPK11; cell material: Jurkat lysate): < 4.52
- pIC50 (MAPK11; cell material: Lysate mix): < 4.52
- pIC50 (ULK3; cell material: Jurkat cells): 6.44
- pIC50 (ULK3; cell material: Jurkat lysate): 5.88
- pIC50 (ULK3; cell material: Lysate mix): 6.39
- pIC50 (UniProt Q13163; cell material: Jurkat cells): 5.71
- pIC50 (UniProt Q13163; cell material: Jurkat lysate): 4.88
- pIC50 (UniProt Q13163; cell material: Lysate mix): 5.42

SMILES: C#CCNC(=O)c1cc(Nc2cc(C)[nH]n2)nc(N2CCN(Cc3ccc(S(=O)(=O)F)cc3)CC2)n1
- pIC50 (HIPK1; cell material: Lysate mix): 5.06
- pIC50 (MAP3K15): 4.92
- pIC50 (MAPK11; cell material: Lysate mix): < 4.52
- pIC50 (ULK3; cell material: Lysate mix): 5.49
- pIC50 (UniProt Q13163; cell material: Lysate mix): 4.64

SMILES: Cc1cc(Nc2cc(C(=O)NCCNC(=O)OC3CC/C=C/CCC3)nc(N3CCN(Cc4ccc(S(=O)(=O)F)cc4)CC3)n2)n[nH]1 (centres undefined)
- pIC50 (HIPK1; cell material: Lysate mix): < 4.52
- pIC50 (MAP3K15): < 4.52
- pIC50 (MAPK11; cell material: Lysate mix): < 4.52
- pIC50 (ULK3; cell material: Lysate mix): < 4.52
- pIC50 (UniProt Q13163; cell material: Lysate mix): < 4.52

SMILES: O=C(NCCNC(=O)c1cc(Nc2cc(C3CC3)[nH]n2)nc(N2CCN(Cc3ccc(S(=O)(=O)F)cc3)CC2)n1)OC1CC/C=C/CCC1 (centres undefined)
- pIC50 (HIPK1; cell material: Jurkat cells): 5.3
- pIC50 (HIPK1; cell material: Jurkat lysate): < 4.52
- pIC50 (HIPK1; cell material: Lysate mix): < 4.52
- pIC50 (MAP3K15): < 4.52
- pIC50 (MAPK11; cell material: Jurkat cells): < 4.52
- pIC50 (MAPK11; cell material: Jurkat lysate): < 4.52
- pIC50 (MAPK11; cell material: Lysate mix): < 4.52
- pIC50 (ULK3; cell material: Jurkat cells): 5.86
- pIC50 (ULK3; cell material: Jurkat lysate): < 4.52
- pIC50 (UniProt Q13163; cell material: Jurkat cells): 4.99
- pIC50 (UniProt Q13163; cell material: Jurkat lysate): < 4.52
- pIC50 (UniProt Q13163; cell material: Lysate mix): < 4.52

SMILES: CCNC(=O)c1cc(Nc2cc(C)[nH]n2)nc(N2CCN(Cc3ccc(S(=O)(=O)F)cc3)CC2)n1
- pIC50 (HIPK1; cell material: Lysate mix): 4.78
- pIC50 (MAP3K15): 4.94
- pIC50 (MAPK11; cell material: Lysate mix): < 4.52
- pIC50 (ULK3; cell material: Lysate mix): 5.63
- pIC50 (UniProt Q13163; cell material: Lysate mix): 4.73

SMILES: CCNC(=O)c1cc(Nc2cc(C3CC3)[nH]n2)nc(N2CCN(Cc3ccc(S(=O)(=O)F)cc3)CC2)n1
- pIC50 (HIPK1; cell material: Lysate mix): 5.78
- pIC50 (MAP3K15): < 4.52
- pIC50 (MAPK11; cell material: Lysate mix): < 4.52
- pIC50 (ULK3; cell material: Lysate mix): 6.27
- pIC50 (UniProt Q13163; cell material: Lysate mix): 5.28
